Our source for the IC50 and viability, T/C values is PubChem BioAssay AID1963870 (Molecular Pharmacology Branch, DTP, NCI, 2024).

This test deals with 292921-168-R-J2-PDC KRAS tumor spheroid viability. Put plainly: Anticancer human tumor 292921-168-R-J2-PDC patient-derived pancreatic carcinoma cell line growth inhibition [KRAS2]. As to conditions: spheroids with HUVEC and MSC; for viability, T/C: stronger effect = lower value. In a few lines:
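KRAS-mutant tumor cells were grown as spheroids with HUVEC endothelial cells and human MSCs as stroma. Targeted agents were tested alone and with KRAS pathway inhibitors. Doses started at or near clinical Cmax, or 10 microM, descending half-log.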

[1] abbreviates: curve of first compound, second compound 0.1 µM.
The mark [2] stands for this setting: curve of first compound, second compound 0.316 µM.
Setting [3] is: curve of first compound, second compound 1 µM.
[4] abbreviates: curve of first compound, second compound 3.16 µM.
Setting [5] is: curve of first compound, second compound 10 µM.
[6] abbreviates: second compound 0.1 µM, first compound 0.0316 µM.
Setting [7] is: second compound 0.1 µM, first compound 0.1 µM.
The mark [8] stands for this setting: second compound 0.316 µM, first compound 0.0316 µM.
[9] abbreviates: second compound 0.316 µM, first compound 0.1 µM.
Setting [10] is: second compound 1 µM, first compound 0.0316 µM.
[11] abbreviates: second compound 1 µM, first compound 0.1 µM.
The mark [12] stands for this setting: second compound 3.16 µM, first compound 0.0316 µM.
[13] abbreviates: second compound 3.16 µM, first compound 0.1 µM.
Where [14] appears, read: second compound 10 µM, first compound 0.0316 µM.
Setting [15] is: second compound 10 µM, first compound 0.1 µM.
The mark [16] stands for this setting: second compound 0.1 µM, first compound 0.316 µM.
The mark [17] stands for this setting: second compound 0.1 µM, first compound 1 µM.
The mark [18] stands for this setting: second compound 0.1 µM, first compound 3.16 µM.
The mark [19] stands for this setting: second compound 0.1 µM, first compound 10 µM.
The mark [20] stands for this setting: second compound 0.316 µM, first compound 0.316 µM.
Where [21] appears, read: second compound 0.316 µM, first compound 1 µM.
[22] abbreviates: second compound 0.316 µM, first compound 3.16 µM.
The mark [23] stands for this setting: second compound 0.316 µM, first compound 10 µM.
Setting [24] is: second compound 1 µM, first compound 0.316 µM.
The mark [25] stands for this setting: second compound 1 µM, first compound 1 µM.
Setting [26] is: second compound 1 µM, first compound 3.16 µM.
Setting [27] is: second compound 1 µM, first compound 10 µM.
[28] abbreviates: second compound 3.16 µM, first compound 0.316 µM.
The mark [29] stands for this setting: second compound 3.16 µM, first compound 1 µM.
[30] abbreviates: second compound 3.16 µM, first compound 3.16 µM.
The mark [31] stands for this setting: second compound 3.16 µM, first compound 10 µM.
The mark [32] stands for this setting: second compound 10 µM, first compound 0.316 µM.
Setting [33] is: second compound 10 µM, first compound 1 µM.
The mark [34] stands for this setting: second compound 10 µM, first compound 3.16 µM.
The mark [35] stands for this setting: second compound 10 µM, first compound 10 µM.

Several values for one entry are separate records, joined by “and”; a condition that tells them apart may be missing. Equal entries are not always repeated. Some results are limits rather than exact numbers.

What is called IC50 is the midpoint of a concentration-inhibition curve. As a reminder, the viability, T/C is the result in the treated group divided by that in the control group, in per cent.
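Note: drug exposure lasted seven days after spheroids formed for three days.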
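Throughout, for viability, T/C: percent of DMSO vehicle control viability which is 100%.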

`Cn1ncnc1[C@H]1c2n[nH]c(=O)c3cc(F)cc(c23)N[C@@H]1c1ccc(F)cc1` + C=CC(=O)N1CCN(c2nc(=O)n(-c3c(C)ccnc3C(C)C)c3nc(-c4c(O)cccc4F)c(F)cc23)C(C)C1: the IC50 under setting [1] was > 100 nM; the IC50 under setting [2] was > 100 nM; the IC50 under setting [3] was > 100 nM; the half-maximal inhibitory concentration (IC50) under setting [4] was 89.7 nM; the IC50 under setting [5] is < 0.316 nM. In addition, the viability, T/C (second compound 0.1 µM, first compound 0.000316 µM) is 103%; the viability, T/C (second compound 0.1 µM, first compound 0.001 µM) is 104%; the viability, T/C (second compound 0.1 µM, first compound 0.00316 µM) is 105%; the viability, T/C (second compound 0.1 µM, first compound 0.01 µM) was 103%; the viability, T/C under setting [6] is 87.5%; the viability, T/C under setting [7] is 78.5%. In addition, the viability, T/C reads like this: (second compound 0.316 µM, first compound 0.000316 µM) 113%; (second compound 0.316 µM, first compound 0.001 µM) 109%; (second compound 0.316 µM, first compound 0.00316 µM) 105%; (second compound 0.316 µM, first compound 0.01 µM) 97.6%; under setting [8], 97.7%; under setting [9], 88.4%. Moreover, the viability, T/C runs as follows: (second compound 1 µM, first compound 0.000316 µM) 106%; (second compound 1 µM, first compound 0.001 µM) 97.3%; (second compound 1 µM, first compound 0.00316 µM) 94.9%; (second compound 1 µM, first compound 0.01 µM) 94.8%; under setting [10], 83.2%; under setting [11], 73.3%. In addition, the viability, T/C was 74.3% (second compound 3.16 µM, first compound 0.000316 µM); 64.2% (second compound 3.16 µM, first compound 0.001 µM); 65.1% (second compound 3.16 µM, first compound 0.00316 µM); 65.3% (second compound 3.16 µM, first compound 0.01 µM); 54.3% under setting [12]; 49.2% under setting [13]. Besides, the viability, T/C by setting is: (second compound 10 µM, first compound 0.000316 µM) 18.7%; (second compound 10 µM, first compound 0.001 µM) 20.8%; (second compound 10 µM, first compound 0.00316 µM) 20.6%; (second compound 10 µM, first compound 0.01 µM) 21.9%; under setting [14], 21.3%; under setting [15], 18.6%.
Take `COC(=O)c1ccc2c(C(=Nc3ccc(N(C)C(=O)CN4CCN(C)CC4)cc3)c3ccccc3)c(O)[nH]c2c1` + CC1OCC2(CCN(c3cnc(Sc4ccnc(N)c4Cl)c(N)n3)CC2)C1N: the IC50 runs as follows: under setting [1], 217 nM; under setting [2], 241 nM; under setting [3], < 31.6 nM; under setting [4], 105 nM; under setting [5], 105 nM. Besides, the viability, T/C under setting [6] was 71.4%; the viability, T/C under setting [7] is 57.7%; the viability, T/C under setting [16] is 48.3%; the viability, T/C under setting [17] is 24.8%; the viability, T/C under setting [18] was 12.3%; the viability, T/C under setting [19] is 0.41%. Besides, the viability, T/C by setting is: under setting [8], 76.8%; under setting [9], 63.1%; under setting [20], 46.1%; under setting [21], 26.6%; under setting [22], 9.27%; under setting [23], 0.34%. Also, the viability, T/C reads like this: under setting [10], 48%; under setting [11], 44.3%; under setting [24], 37.6%; under setting [25], 19.3%; under setting [26], 10%; under setting [27], 0.37%. Also, the viability, T/C was 60% under setting [12]; 51.8% under setting [13]; 34.5% under setting [28]; 17.9% under setting [29]; 9.11% under setting [30]; 0.37% under setting [31]. The viability, T/C under setting [14] is 58.2%; the viability, T/C under setting [15] was 50.3%; the viability, T/C under setting [32] was 34.6%; the viability, T/C under setting [33] was 17.4%; the viability, T/C under setting [34] was 1.12%; the viability, T/C under setting [35] was 0.57%.
As to `CCN1CCN(Cc2ccc(Nc3ncc(F)c(-c4cc(F)c5nc(C)n(C(C)C)c5c4)n3)nc2)CC1`, the viability, T/C (compound 0.00316 µM) was 88.5% and 85.8% and 83.2%; the viability, T/C (compound 0.01 µM) was 72.1% and 73% and 63.1%; the viability, T/C (compound 0.0316 µM) was 57.3% and 49.2% and 53%; the viability, T/C (compound 0.1 µM) is 36.8% and 43.1% and 36.2%; the viability, T/C (compound 0.316 µM) was 28.3% and 34.9% and 27.1%; the viability, T/C (compound 1 µM) is 17.8% and 23.3% and 20.6%. The IC50 (curve of compound) was 46.4 nM and 47.4 nM and 32.1 nM.
In the case of `CC(C)n1nc(-c2ccc3oc(N)nc3c2)c2c(N)ncnc21`, the viability, T/C reads like this: (compound 0.001 µM) 61.9% [middle of 5 runs]; (compound 0.00316 µM) 48.2% [middle of 5 runs]; (compound 0.01 µM) 35.1% [middle of 5 runs]; (compound 0.0316 µM) 27.3% [middle of 5 runs]; (compound 0.1 µM) 22.6% [middle of 5 runs]. The IC50 (curve of compound) was 2.46 nM [middle of 5 runs].
As to `CC1OCC2(CCN(c3cnc(Sc4ccnc(N)c4Cl)c(N)n3)CC2)C1N` (stereo not drawn) + CNCc1ccccc1-c1csc(C(C)Nc2nc(C)nc3cc(OC)c(OC)cc23)c1, the IC50 by setting is: under setting [1], 296 nM; under setting [2], 203 nM; under setting [3], 43.5 nM; under setting [4], < 31.6 nM; under setting [5], < 31.6 nM. In addition, the viability, T/C under setting [6] is 77%; the viability, T/C under setting [7] was 61.6%; the viability, T/C under setting [16] is 50%; the viability, T/C under setting [17] was 37.5%; the viability, T/C under setting [18] is 34.6%; the viability, T/C under setting [19] is 26.7%. In addition, the viability, T/C is 77.4% under setting [8]; 56.2% under setting [9]; 44.7% under setting [20]; 37.4% under setting [21]; 31.8% under setting [22]; 24.8% under setting [23]. For the same compound, the viability, T/C under setting [10] is 52.5%; the viability, T/C under setting [11] is 43.2%; the viability, T/C under setting [24] is 37.8%; the viability, T/C under setting [25] is 29.3%; the viability, T/C under setting [26] was 26%; the viability, T/C under setting [27] was 22.2%. The viability, T/C under setting [12] was 0.1%; the viability, T/C under setting [13] was 0.09%; the viability, T/C under setting [28] was 0.07%; the viability, T/C under setting [29] was 0.06%; the viability, T/C under setting [30] is 0.05%; the viability, T/C under setting [31] is 0.33%. For the same compound, the viability, T/C was 0.09% under setting [14]; 0.19% under setting [15]; 0.08% under setting [32]; 0.09% under setting [33]; 0.09% under setting [34]; 0.15% under setting [35].
